Experimental data as given in US20080249113A1, “Fungicidal Mixtures” (priority 2004, published 2008).

Assays:
Format in all cases: in vivo
Alternaria solani = experiment: Use Example 5: early blight of tomato caused by Alternaria solani, synergism test (Abbot efficacy, Colby); conditions: individual active compound; for pest or weed control at 4 ppm: 4 ppm in the spray liquor
Protocol: (§1) For use examples 3 to 9, the active compounds, separately or jointly, were prepared as a stock solution comprising 0.25% by weight of active compound in acetone or DMSO. 1% by weight of the emulsifier Uniperol® EL (wetter having emulsifying and dispersant action based on ethoxylated alkylphenols) was added to this solution, and the mixture was diluted with water to the desired concentration.
(§2) The active compounds fosetyl-AI, epoxiconazole, triticonazole and pyraclostrobin were applied in their commercial formulation.
Leaves of potted plants of the cultivar “Goldene Königin” were sprayed to run off point with an aqueous suspension having the active compound concentration stated below. The next day, the leaves were infected with an aqueous spore suspension of Alternaria solani in a 2% strength biomalt solution having a density of 0.17×10^6 spores/ml. The plants were then placed in a water vapor-saturated chamber at temperatures between 20 and 22° C. After 5 days, the disease on the untreated but infected control plants had developed to such an extent that the infection could be determined visually in %.
A further test according to use example 3 was evaluated as follows:
(§3) The visually determined percentages of infected leaf areas were converted into efficacies in % of the untreated control:
(§4) The efficacy (E) is calculated as follows using Abbot's formula: […]
(§5) α corresponds to the fungicidal infection of the treated plants in % and β corresponds to the fungicidal infection of the untreated (control) plants in %
(§6) […]; The expected efficacies of mixtures of active compounds were determined using Colby's formula (Colby, S.R. “Calculating synergistic and antagonistic responses of herbicide combinations”, Weeds, 15, 20-22, 1967) and compared with the observed efficacies.
(§7) E=x+y−x·y/100 • E expected efficacy, expressed in % of the untreated control, when using the mixture of the active compounds A and B at the concentrations a and b • x efficacy, expressed in % of the untreated control, when using the active compound A at the concentration a • y efficacy, expressed in % of the untreated control, when using the active compound B at the concentration b

Pyrenophora teres = experiment: Use Example 7: net blotch of barley caused by Pyrenophora teres, 1 day protective application, synergism test; conditions: individual active compound
Protocol: as §1
Leaves of potted barley seedlings were sprayed to run off with an aqueous suspension having the active compound concentration stated below. 24 hours after the spray coating had dried on, the test plants were inoculated with an aqueous spore suspension of Pyrenophora [syn. Drechslera ] teres, the net blotch pathogen. The test plants were then placed in a greenhouse at temperatures between 20 and 24° C. and 95 to 100% relative atmospheric humidity. After 6 days, the extent of the development of the disease was determined visually in % infection of the entire leaf area.
as §3, §4, §5, §6, §7
In a further test according to use example 4, the following results were obtained: […]

Puccinia recondita = experiment: Use Example 6: protective activity against Puccinia recondita on wheat (brown rust of wheat); conditions: individual active compound
Protocol: as §1, §2, §3, §4, §5, §6, §7
Leaves of potted wheat seedlings of the cultivar “Kanzler” were sprayed to run off point with an aqueous suspension having the active compound concentration stated below. The next day, the treated plants were inoculated with a spore suspension of brown rust of wheat (Puccinia recondite). The plants were then placed in a chamber with high atmospheric humidity (90 to 95%) at 20 to 22° C. for 24 hours. During this time, the spores germinated and the germ tubes penetrated into the leaf tissue. The next day, the test plants were returned to the greenhouse and cultivated at temperatures between 20 and 22° C. and 65 to 70% relative atmospheric humidity for a further 7 days. The extent of the rust fungus development on the leaves was then determined visually.

[1] = Alternaria solani, 120 h, read-out: Efficacy in % of the untreated control
[2] = Alternaria solani, 120 h, 16 ppm in the spray liquor, read-out: Efficacy in % of the untreated control
[3] = Alternaria solani, 120 h, 63 ppm in the spray liquor, read-out: Efficacy in % of the untreated control

Molecule: Fc1ccc([C@]2(Cn3cncn3)O[C@H]2c2ccccc2Cl)cc1 (racemic) [epoxiconazole, (2RS, 3SR)-1-[3-(2-chlorophenyl)-2,3-epoxy-2-(4-fluorophenyl)propyl]-1H-1,2,4-triazole]
- pest or weed control at 4 ppm (Alternaria solani; [1]): 56%

Molecule: COCC(=O)N(c1c(C)cccc1C)C(C)C(=O)OC (racemic) [metalaxyl, methyl N-(methoxyacetyl)-N-(2,6-xylyl)-DL-alaninate]
- pest or weed control at 4 ppm (Alternaria solani; [1]): 0%

Molecule: Cc1ccccc1-c1c(Cl)nc2ncnn2c1N1CCC(C)CC1 [Compound A-31, 5-chloro-6-(2-methylphenyl)-7-(4-methylpiperidin-1-yl)-1,2,4-triazolo[1,5a]pyrimidine]
- Efficacy in % of the untreated control (Pyrenophora teres; 16 ppm in the spray liquor): 33%
- Efficacy in % of the untreated control (Pyrenophora teres; 63 ppm in the spray liquor): 67%
- Efficacy in % of the untreated control (Puccinia recondita; 16 ppm in the spray liquor): 22%
- Efficacy in % of the untreated control (Alternaria solani; 63 ppm in the spray liquor): 78%

Molecule: O=C(Nc1ccccc1-c1ccc(Cl)cc1)c1cccnc1Cl [boscalid, 2-chloro-N-(4′-chlorobiphenyl-2-yl)nicotinamide]
- pest or weed control at 16 ppm (Alternaria solani; [2]): 22%

Molecule: N#Cc1c(Cl)c(Cl)c(Cl)c(C#N)c1Cl [chlorothalonil, 2,4,5,6-tetrachloroisophthalonitrile]
- Efficacy in % of the untreated control (Puccinia recondita; 16 ppm in the spray liquor): 17%
- pest or weed control at 63 ppm (Alternaria solani; [3]): 0%

Molecule: Cc1ccc(-c2c(Cl)nc(C#N)n2S(=O)(=O)N(C)C)cc1 [cyazofamid, 4-chloro-2-cyano-N,N-dimethyl-5-p-tolylimidazole-1-sulfonamide]
- pest or weed control at 16 ppm (Alternaria solani; [2]): 0%
- pest or weed control at 63 ppm (Alternaria solani; [3]): 0%
- pest or weed control at 250 ppm (Alternaria solani; Alternaria solani, 120 h, 250 ppm in the spray liquor, read-out: Efficacy in % of the untreated control): 0%

Molecule: COc1ccc(C(=CC(=O)N2CCOCC2)c2ccc(Cl)cc2)cc1OC [dimethomorph, 3-(4-chlorophenyl)-3-(3,4-dimethoxyphenyl)-1-morpholin-4-ylpropenone]
- Efficacy in % of the untreated control (Puccinia recondita; 16 ppm in the spray liquor): 0%
- Efficacy in % of the untreated control (Puccinia recondita; 63 ppm in the spray liquor): 0%

Molecule: N#Cc1sc2c(=O)c3ccccc3c(=O)c=2sc1C#N [dithianon, 5,10-dioxo-5,10-dihydronaphtho[2,3-b][1,4]dithiine-2,3-dicarbonitrile]
- Efficacy in % of the untreated control (Pyrenophora teres; 16 ppm in the spray liquor): 0%

Molecule: CC(Cc1ccc(C(C)(C)C)cc1)CN1CC(C)OC(C)C1 (centres unmarked) [fenpropimorph, 4-[3-(4-tert-butylphenyl)-2-methylpropyl]-2,6-dimethylmorpholine]
- Efficacy in % of the untreated control (Puccinia recondita; 16 ppm in the spray liquor): 0%
- Efficacy in % of the untreated control (Puccinia recondita; 63 ppm in the spray liquor): 0%

Molecule: O=C1c2ccccc2C(=O)N1SC(Cl)(Cl)Cl [folpet, 2-trichloromethylsulfanylisoindole-1,3-dione]
- pest or weed control at 63 ppm (Alternaria solani; [3]): 0%

Molecule: CO/N=C(/C(=O)OC)c1ccccc1COc1ccccc1C [kresoxim-methyl, methyl (E)-methoxyimino[α-(otolyloxy)-otolyl]acetate]
- Efficacy in % of the untreated control (Puccinia recondita; 1 ppm in the spray liquor): 0%
- Efficacy in % of the untreated control (Puccinia recondita; 4 ppm in the spray liquor): 0%

Molecule: CCCN(CCOc1c(Cl)cc(Cl)cc1Cl)C(=O)n1ccnc1 [prochloraz, N-propyl-N-[2-(2,4,6-trichlorophenoxy)ethyl]imidazole-1-carboxamide]
- Efficacy in % of the untreated control (Puccinia recondita; 4 ppm in the spray liquor): 0%
- Efficacy in % of the untreated control (Puccinia recondita; 16 ppm in the spray liquor): 0%

Molecule: OC(Cc1ccccc1Cl)(Cn1nc[nH]c1=S)C1(Cl)CC1 (centres unmarked) [prothioconazole, 2-[2-(1-chlorocyclopropyl)-3-(2-chlorophenyl)-2-hydroxypropyl]-2,4-dihydro-[1,2,4]triazole-3-thione]
- pest or weed control at 4 ppm (Alternaria solani; [1]): 22%

Molecule: Cc1cc(C)nc(Nc2ccccc2)n1 [pyrimethanil, 4,6-dimethylpyrimidin-2-ylphenylamine]
- Efficacy in % of the untreated control (Puccinia recondita; 16 ppm in the spray liquor): 0%

Molecule: CC1(C)CCC(=Cc2ccc(Cl)cc2)C1(O)Cn1cncn1 (centres unmarked) [triticonazole, 5-(4-chlorobenzylidene)-2,2-dimethyl-1-[1,2,4]triazol-1-ylmethylcyclo-pentanol]
- pest or weed control at 4 ppm (Alternaria solani; [1]): 0%

Molecule: manganese ethylenebis(dithiocarbamate) zinc complex [mancozeb]
- Efficacy in % of the untreated control (Puccinia recondita; 16 ppm in the spray liquor): 0%
- Efficacy in % of the untreated control (Puccinia recondita; 63 ppm in the spray liquor): 0%
- Efficacy in % of the untreated control (Alternaria solani; 16 ppm in the spray liquor): 0%
- Efficacy in % of the untreated control (Alternaria solani; 63 ppm in the spray liquor): 0%
